From patent US20220030850A1, “CRYOPRESERVATIVE COMPOSITIONS AND METHODS” (REGENTS OF THE UNIVERSITY OF MINNESOTA, priority 2015, published 2022)

Key:
[1] = 10% DMSO solution; cited from earlier work
H9-MSCs = test: MSC vial freezing, post-thaw recovery and two-hour attachment (Example 5); format: cell-based, human; conditions: DMSO, room temperature pre-freeze incubation; 1° C./min; FIG. 21C
Procedure: Optimized solutions were prepared at double (2×) the final freezing concentration and added stepwise to cells in NORMOSOL-R (Hospira, Inc., Lake Forest, Ill.) at a 1:1 final volume ratio in a freezing vial (NALGENE, Nalge Nunc, Penfield, N.Y.). Control cells in media were similarly combined stepwise with DMSO at a 1:1 final volume ratio. Each of these vials was incubated at room temperature for 0 hours, one hour, or two hours. Experimental solutions were frozen using a 3° C./min cooling rate protocol described below, while DMSO solutions were frozen using a 1° C./min cooling rate protocol on a controlled rate freezer (Kryo 10 Series III, Planer PLC, Middlesex, United Kingdom). […]
Samples were submerged in a 37° C. bath to just under cap level, and agitated until only a small ice crystal was present. The cells were combined with acridine orange/propidium iodide (AO/PI) and counted using a hemocytometer. […]
Cell attachment of samples post-thaw was measured using a fluorescent plate reader. […] After two hours or 24 hours, these paired plates were washed with PBS, 1 μM calcein-acetoxymethyl (AM) dye was added, and then analyzed for fluorescence on a plate reader. Raw fluorescence values were used to calculate the number of live cells present in each well by correlating to a control curve of cells seeded at known densities. […]

lysozyme = lysozyme (Gallus gallus, UniProt P00698); test: Differential scanning calorimetry, denaturation temperature of lysozyme in osmolyte solution; format: physicochemical; conditions: 1 mg/ml lysozyme in 20 mM HEPES buffer; single osmolytes 600 mM; heated at 1° C./min; pH 7.3
Procedure: Lysozyme powder was dissolved into each solution reaching final concentration of 100 mg/ml and then refrigerated. Lysozyme in DPBS solution was used as control. For DSC measurements, experiment solution was made by dissolving osmolyte into 20 mM HEPES buffer and the concentration of osmolyte in each solution remained same as in DPBS solution. Lysozyme powder was dissolved into each solution reaching final concentration of 1 mg/ml and kept refrigerated. Lysozyme in HEPES buffer was used as control. The pH of solutions was 7.3 measured by Beckman 350 meter. Differential scanning calorimetry was performed on a differential scanning calorimeter (Q1000, TA Instruments, New Castle, Del.). Osmolyte solutions containing lysozyme were heated in order to determine the denaturation temperature of lysozyme. Experimental solutions were heated from room temperature to 90° C. at 1° C./min. Specific heat, Cp, was calculated from the heat flow data assuming Cp as a function of temperature were analyzed using OriginPro software (OriginLab Corp., Northampton, Mass.) to subtract curve baseline. The midpoint temperature, Tm, was obtained as the temperature corresponding to the maximum specific heat value from the baseline and the denaturation temperature was assumed to be Tm^32.

MSCs = test: High throughput factorial screening with Linear Mixed Effects statistical analysis of recovery; format: cell-based, human; conditions: statistical analysis of sugar and cooling rate
Procedure: In another evaluation, cells were combined with factorial combinations of the components listed in Table 5, using one component from each category. Plates including cells and solutions were frozen at cooling rates of 1′C/min, 3′C/min, 5′C/min, or 10′C/min.
Recovery was calculated by dividing the number of live cells post thaw—calculated using a control curve correlating calcein-acetoxymethyl (AM) fluorescence to cell count—by the number of live cells seeded pre-freeze (AO/PI counts taken prior to freezing). Recovery was normalized by dividing by the DMSO recovery on each plate, then multiplying by a standard DMSO recovery for each cooling rate. This normalized recovery was used to compare samples between different plates and different cooling rates.
Statistical analysis of the data was performed using a Linear Effects Model. The model associated with best fit was determined using Bayesian Information Criteria. […] The ten best combinations for Jurkats are summarized in Table 6 below, while the eight best combinations for MSCs are summarized in Table 7.
To assess the importance of the four explanatory variables of interest (Sugar, Rate, Additive and Alcohol), without neglecting the variation between each batch and between each plate within the batches, we sought to find the best Linear Mixed Effects (LME) model. With yi the i'th outcome of the response, Xi the corresponding values of the covariates, the LME model is defined as
To select the most fitting model, we performed backward elimination based on the Bayesian Information Criterion (BIC) starting with a model that includes all variables and second order interactions. Furthermore, we included two random variables, one to catch the effect of the batch, and one to catch the effect of each plate within the batch—i.e., the full model is: […]

Sequence of lysozyme (P00698 19-147): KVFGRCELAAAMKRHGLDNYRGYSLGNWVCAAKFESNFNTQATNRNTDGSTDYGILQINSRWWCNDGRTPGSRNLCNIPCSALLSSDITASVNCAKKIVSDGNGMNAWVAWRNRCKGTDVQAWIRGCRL

| Denaturation temperature Tm of lysozyme (lysozyme) | SMILES | osmolarity [1] | attachment of cells, effect of incubation prior to freezing (H9-MSCs) | cell recovery, effect of incubation prior to freezing (H9-MSCs) | cooling rate at which cells performed better with the sugar (MSCs) |
| --- | --- | --- | --- | --- | --- |
| – | C[S+](C)[O-] [DMSO, dimethyl sulfoxide] | ~1400 mOsm | significantly reduced | did not alter | – |
| 84.4 °C | OC[C@H]1O[C@@](CO)(O[C@H]2O[C@H](CO)[C@@H](O)[C@H](O)[C@H]2O)[C@@H](O)[C@@H]1O [Sucrose] | – | – | – | 3 °C and 5° C./min |
